Patent publication EP0099122A2, “Compositions comprising pepstatin and an histamine H2-receptor antagonist having an enhanced antiulcer activity” (Bristol-Myers Company, priority 1982, dated 1984)
Where two headings read alike, the source gives them in different places.

Tests used:
Gastric Fistula Rat = assay: Gastric antisecretory activity in the Gastric Fistula Rat; assay type: in vivo, Long Evans rats; settings: sc; for ED50: Rattus norvegicus, read-out: ED50 sc
Protocol: Determination of Gastric Antisecretory Activity in the Gastric Fistula Rat
Male Long Evans rats weighing about 240-260 grams at the time of cannula implantation are used. […] The fistula components are designed and the operative procedure is carried out exactly as described in the above reference. Post operatively the animals are individually housed in solid bottom cages with sawdust and are allowed food and water ad libitum throughout the entire recovery period. Animals are not used for test purposes for at least 15 days after the operative procedure.
The animals are fasted but allowed water ad libitum for 20 hours before the testing procedure is to begin. Immediately prior to collection, the cannula is opened and the. stomach washed gently with 30-40 mL of warm saline or distilled water to remove any residual contents. The catheter is then screwed into the cannula in place of the plugging screw and the rat is placed in a clear plastic rectangular cage measuring 40 cm long, 15 cm wide and 13 cm high. The bottom of the cage has a slit approximately 1.5 cm wide and 25 cm long running down the center to accommodate the catheter which hangs through it. In this way the rat is not restricted and can move -freely about the cage during collection periods. The remainder of the assay is carried out as described by Ridley et al. [Research Comm. Chem. Path.
Gastric secretions collected during the first hour after washing the stomach are discarded as they may be contaminated. For oral evaluation, the catheter is then removed from the cannula and replaced with the plugging screw. Water (2 mL/kg) is administered orally via gastric intubation and the animal is returned to the cage for 45 minutes. After this time the plugging screw is removed and replaced with a catheter to which a small plastic vial has been attached to collect the gastric secretions. A two hour sample is collected (this represents the control secretion), the catheter removed and.replaced with the plugging screw. The test drug is now administered orally in a volume of 2 mL/kg via gastric intubation. Forty-five minutes later the plugging screw is again removed, replaced with the catheter attached to a small plastic vial and another 2 hour sample is collected. The secretions in the second sample are compared to those of the control sample in order to determine thee effects of the test drug.
When test compounds are to be evaluated parenterally, the animal is injected ip or sc with the test compound vehicle in a volume of 2 mL/kg immediately after discarding the initial 60 minute collection. A two hour sample is collected (control secretion) and the animals are injected either ip or sc with the test compound in a volume of 2 mL/kg. An additional two hour sample is collected and its secretions are compared to those of the control period to determing drug effects.
The samples are centrifuged in a graduated tube for volume determination. Titratable acidity is measured by titrating a one mL sample to pH 7.0 with 0.02N NaOH, using an Autoburet and an electrometric pH meter (Radiometer). Titratable acid output is calculated in microequivalents by multiplying the volume in milliliters by the acid concentration in milliequivalents per liter.
Results are expressed as percent inhibition relative to control readings. Dose response curves are constructed and ED50 values are calculated by regression analyses. At least three rats are used at each dosage level and a minimum of three dosage levels are utilized for determination of a dose response curve.

Heidenhain Pouch Dog = assay: Gastric antisecretory activity in the Heidenhain Pouch Dog; assay type: in vivo, dogs; settings: 95% confidence limits in parentheses; for ED50: Canis lupus familiaris
Protocol: Determination of Gastric Antisecretory […] in the Heidenhain Pouch Dog Prior to surgery, hematology and blood chemistry profiles are obtained and an assessment made as to the general health of selected female dogs. Dogs are vaccinated with Tissue […]-Moore) and housed in general animal quarters for four weeks' observation so incipient diseases may become apparent. Dogs are fasted with water ad libitum 24 hours prior to surgery. […] Subsequent anesthesia is maintained with methoxy- flurane (Pitman-Moore). A mid-line linea alba incision from xiphoid to umbilicus provides good exposure and ease of closure. The stomach is pulled up into the operative fields the greater curvature stretched out at multiple points and clamps placed along the selected line of incision. The pouch is made from the corpus of the stomach so that true parietal cell juice is obtained. About 30% of the corpus volume is resected. The cannula is made of light-weight, biologically-inert material such as nylon or Delrin with dimensions and attachments after DeVito and […] fJ. Appl. Physiol., 14, 138 (1959)]. Post operatively, dogs are medicated with antibiotics and an analgesic. They are allowed 2-3 months for recovery. Experiments are carried out in the following way: […] The dogs are placed in a sling and a saphenous vein cannulated for drug administration. Histamine as the base (100 μg/kg/hr) and chlorpheniramine maleate (0.25 mg/kg/hr) are infused continuously (in a volume of 6 mL/hr) with a Harvard infusion pump. Ninety minutes' infusion are allowed for the dogs to reach a steady state of acid output. At this time the drug or normal saline (control) is administered concomitantly with the secretagogue in a volume of 0.5 mL/kg over a 30 second period. When oral studies are to be carried out, the drug is administered via gastric gavage in a volume of 5 mL/kg. Infusion of the secretagogue is continued and 15 minute samples of the gastric juice are taken for 4.5 hours. Each sample is measured to the nearest 0.5 mL and titratable acidity is determined by titrating a 1 mL sample to pH 7.0 with 0.2N NaOH, using an Autoburet and an electrometric pH meter '(Radiometer). Titratable acid output is calculated in microequivalents by multiplying the volume in milliliters by the acid concentration in milliequivalents per liter. Results are expressed as percent inhibition relative to control readings. Dose response curves are constructed and ED50 values are calculated by regression analyses. From 3 to 5 dogs are used at each dose level and a minimum of three dosage levels are utilized for determination of a dose response curve.

gastric acid secretion [1] = assay: Inhibition of gastric acid secretion relative to cimetidine, various animal studies; assay type: in vivo; settings: inhibitors of gastric acid secretion, oral route
Protocol: Based on this potency difference, the oral dosage of the compounds of Examples 1 and 9 would be about 1/20 to 1/25 that of cimetidine, thus reducing the expected incidence of side effects. The usual oral dosage of cimetidine is 300 mg, given four times a day, while the usual dosage of the compounds of Examples 1 and 9 is about 12-15 mg, given four times a day. It was an object of this invention to further reduce the necessary dosage of the compounds of Formula I by the concomitant administration of a peptic activity- inhibitory amount of pepstatin. As will be shown below, such concomitant administration provides about a three-fold increase in potency compared with the administration of an equal amount of the compound of Formula I alone, thus permitting a further three-fold reduction in the dosage of the compound of Formula I.

gastric acid secretion [2] = assay: Inhibition of gastric acid secretion relative to cimetidine, oral route, dog; assay type: in vivo
Protocol: (§1) In the tests described below, gastric erosions produced in rats by the oral instillation of 1.0 mL of 0.75N HC1 were compared with those in rats which had been pretreated with the most preferred compound of Formula I (of Example 1) or with that compound and pepstatin. Comparison tests utilizing pretreatment with the newer commercial product, ranitidine, and with ranitidine and pepstatin, are also shown. Ranitidine is about 4 and 6 times as potent as cimetidine as an inhibitor of gastric acid secretion by the oral route in the rat and dog, respectively.

[3] = tested on: HCl-Induced Formation of Gastric Lesions; assay: HCl-induced gastric erosions in rats (modified method of Robert et al.); assay type: in vivo, Long Evans rats; settings: compound alone versus compound plus pepstatin (20 mg/kg po)
Protocol: as §1
A modification of the method of Robert et al., [Gastroenterology, 77, 433-443 (1979)] was employed to produce gastric erosions. Adult male, Long Evans rats weighing 280-300 g (Blue Spruce Farms, Alton, New York) were used. The animals were individually caged and food and water were removed 24 and 18 hours, respectively, prior to testing. On the following day, the test compound was administered orally to the animals 30 minutes before 1.0 mL of 0.75N HC1 was instilled into the stomach by gavage. Animals treated with the combination of the test compound and pepstatin received the test compound 30 minutes before, and a fixed amount of pepstatin (20 mg/kg po) 10 minutes before, the hydrochloric acid was administered. […] One hour after receiving the HC1 solution, the animals were sacrificed with an intraperitoneal injection of 0.2 mL of T-61®, a euthanasia solution (National Laboratories Corp.).
The stomachs were removed from the animals, cut along the greater curvature, opened, rinsed with saline and pinned out flat in a standard position for macroscopic examination and scoring of erosions. The stomachs were photographed with a Polaroid® Close Up camera (Polaroid Corporation) and scoring was determined from the photographs. For scoring purposes, only those erosions with a minimum length of 1 mm were considered. The severity of gastric ulceration was defined for each animal as the sum of the maximum continuous lengths (in mm) of the erosions satisfying the above criteria. Percent inhibition of lesion formation was defined as
(mm erosion, vehicle control') - (mm erosion, test agent) 100. (mm erosion, vehicle control)
Data were analyzed using the t-test for unpaired data' and ED50 values were calculated from the dose response data using probit analysis [Finney, Probit Analysis, 3rd ed., University Press, Cambridge, England (1971)].
The compound of Example 1 and ranitidine (synthesized by the Medicinal Chemistry Research Department of Bristol Laboratories, Division of.Bristol-Myers Company) were dissolved in one equivalent of HC1 and the pH adjusted to 5.5 with NaOH. A suspension of pepstatin (Banyu Pharmaceutical Co. Ltd.) in water was made by homogenizing the compound with a few drops of Tween-80® (Atlas Chemical Industries). Each of these compounds were administered orally by gavage in a volume of 2 mL/kg.

gastric acid secretion [4] = assay: Inhibition of gastric acid secretion relative to cimetidine, oral route, rat; assay type: in vivo
Protocol: as §1

[5] = 95% confidence limits in parentheses

SMILES | ED50 (Gastric Fistula Rat; [5]) [µmol/kg] | Potency Ratio [cimetidine = 1.0] (Gastric Fistula Rat; [5]) | also measured
O=c1c(NCCCOc2cccc(CN3CCCCC3)c2)c(NCc2cccnc2)c1=O [Example 12, 2-[3-(3-Piperidinomethylphenoxy)propylamino]-l-(3-pyridyl)methyl-aminocyclobutene-3,4-dione] | 0.094 | 44 (22-90) | –
CN(C)Cc1cccc(OCCCNc2c(N)c(=O)c2=O)c1 [Example 9, 1-Amino-2-[3-(3-dimethylaminomethylphenoxy)propylamino]cyclobutene-3,4-dione] | 0.055 | 61 (20-204) | Potency Ratio [cimetidine = 1.0] (Heidenhain Pouch Dog; INTRAVENOUS): ~40; Potency Ratio [cimetidine = 1.0] (Heidenhain Pouch Dog; ORAL): ~20; times more potent than cimetidine (gastric acid secretion [1]): 20-25
CNC(=C[N+](=O)[O-])NCCSCc1ccc(CN(C)C)o1 [Ranitidine, ranitidine] | – | – | times as potent as cimetidine as an inhibitor of gastric acid secretion (gastric acid secretion [2]): ~6; Potency Ratio [3]: 1.18; times as potent as cimetidine as an inhibitor of gastric acid secretion (gastric acid secretion [4]): about 4
Nc1c(NCCCOc2cccc(CN3CCCCCC3)c2)c(=O)c1=O [Example 10i, 1-amino-2-[3-(3-hexamethyleneiminomethylphenoxy)propylamino]-cyclobutene-3,4-dione] | 0.08 | 48 (21-97) | Potency Ratio [cimetidine = 1.0] (Heidenhain Pouch Dog; INTRAVENOUS): >40
CN(C)Cc1ccc(CSCCNc2c(N)c(=O)c2=O)o1 [Example 2, 1-Amino-2-{2-[(5-dimethylaminomethyl-2-furyl)methylthio]ethyl-amino}cyclobutene-3,4-dione] | < 1 | >4 | Potency Ratio [cimetidine = 1.0] (Heidenhain Pouch Dog; INTRAVENOUS): ~20
CNc1c(NCCCOc2cccc(CN3CCCCC3)c2)c(=O)c1=O [Example 11, 1-Methylamino-2-[3-(3-piperidinomethylphenoxy)propylamino]cyclobutene-3,4-dione] | 0.067 | 50 (15-169) | –
Nc1c(NCCCOc2cccc(CN3CCCCCCC3)c2)c(=O)c1=O [Example 10j, 1-amino-2-[3-(3-heptamethyleneiminomethylphenoxy)propylamino]-cyclobutene-3,4-dione] | 0.044 | 88 (36-211) | –
C#CCNc1c(NCCCOc2cccc(CN3CCCCC3)c2)c(=O)c1=O [Example 14d] | 0.031 | 124 (62-243) | –
CN(C)Cc1ccc(CSCCNc2c(N)c(=O)c2=O)s1 [Example 3, 1-Amino-2-{2-[(5-dimethylaminomethyl-2-thienyl)methylthio]ethyl-amino}cyclobutene-3,4-dione] | ~4 | ~1 | –
Nc1c(NCCCOc2cccc(CN3CCCCCCCC3)c2)c(=O)c1=O [Example 10m, 1-amino-2-[3-(3-octamethyleneiminomethylphenoxy)propylamino]-cyclobutene-3,4-dione] | 0.7 | 5.4 (2.1-12) | –
CN/C(=N/CCSCc1nc[nH]c1C)NC#N [Cimetidine, cimetidine, reference compound] | – | – | ED50 (Heidenhain Pouch Dog; INTRAVENOUS): 2.18 µmol/kg; ED50 (Heidenhain Pouch Dog; ORAL): 3.29 µmol/kg; ED50 (Gastric Fistula Rat): 3.8 µmol/kg
